From publication PMC3809587, “Structure and function of the Smoothened extracellular domain in vertebrate Hedgehog signaling” (eLife, 2013)

Key:
Zebrafish embryos = test: Zebrafish embryo treatment: eng2a:GFP reporter and ptch2 in situ hybridization; assay type: in vivo; conditions: 30hpf embryos; 20(S)-OHC 50 µM, cyclopamine 40 µM
Procedure: Adult fishes were maintained on a 14-hr light/10-hr dark cycle at 28°C in the AVA (Singapore) certified IMCB Zebrafish Facility. Zebrafish strain used was Tg(eng2a:eGFP)^i233 ([Maurya et al., 2011]).
The embryos of Tg(eng2a:eGFP)^i233 were dechorinated using pronase (Roche) at one cell stage. […] Control embryos were kept in water containing the same amount of ethanol, used as the vehicle for the drugs. Standard in situ hybridization (ISH) was performed with anti-Dig alkaline phosphatase and chromogenic substrate NBT/BCIP as previously described ([Oxtoby and Jowett, 1993]). ptch2 (formerly ptc1) RNA probe was prepared from template as previously described ([Concordet et al., 1996]).

[1] = system: endogenous mSmo in cilia of NIH 3T3 cells; test: Immunofluorescence of ciliary Smo accumulation; assay type: cell-based, mouse; conditions: NIH 3T3, 4 hr, presence of Shh
[2] = system: endogenous mSmo in cilia of NIH 3T3 cells; set-up: method as in Rohatgi et al., 2009; conditions: absence of Shh; ref Rohatgi et al., 2009; cited from earlier work
ΔCRD-YFP-mSmo = target: T1, ΔCRD-YFP-mSmo (Mus musculus, UniProt P56726, DEL68-184); test: Hh signaling by ΔCRD-YFP-mSmo in Smo−/− cells (immunoblot, Hh reporter); assay type: cell-based; conditions: SAG 25 nM, cyclopamine 5 μM, Hh reporter
T1 construct: All mSmo mutants were made using Quickchange or PCR methods in the context of a previously described construct encoding full-length mouse Smo (UniProt P56726); expressed in transfected cells

[3] = system: Hh reporter (8xGli-responsive promoter); conditions: ref Nachtergaele et al., 2012; cited from earlier work
mSmo CRD-Fc = target: T2, mSmo CRD-Fc (Mus musculus, UniProt P56726); test: Ligand affinity chromatography: mSmo CRD-Fc binding to 20(S)-OHC beads; conditions: free compound added as competitor
T2 construct: made in house; host or cells: 293F suspension cells (secreted)
T2 sequence (P56726 33-183): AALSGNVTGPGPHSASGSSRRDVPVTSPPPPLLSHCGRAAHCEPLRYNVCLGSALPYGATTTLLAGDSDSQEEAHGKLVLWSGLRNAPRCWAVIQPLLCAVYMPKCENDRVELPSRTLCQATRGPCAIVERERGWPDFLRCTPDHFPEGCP
Procedure: After binding was allowed to proceed for 12 hr at 4°C, the resin was washed and captured protein was eluted as described above. The presence of mSmo CRD-Fc was measured by an anti-human HRP-coupled antibody (1:20,000) or anti-human IR800-coupled antibody (1:10,000; for all quantitation, detected by LiCor Odyssey). The presence of zSmo ectodomain protein was measured by colloidal Coomassie staining (GelCode Blue, Pierce/Thermo Scientific). […]

T1 sequence (P56726 with tags, fused parts or gaps DEL68-184): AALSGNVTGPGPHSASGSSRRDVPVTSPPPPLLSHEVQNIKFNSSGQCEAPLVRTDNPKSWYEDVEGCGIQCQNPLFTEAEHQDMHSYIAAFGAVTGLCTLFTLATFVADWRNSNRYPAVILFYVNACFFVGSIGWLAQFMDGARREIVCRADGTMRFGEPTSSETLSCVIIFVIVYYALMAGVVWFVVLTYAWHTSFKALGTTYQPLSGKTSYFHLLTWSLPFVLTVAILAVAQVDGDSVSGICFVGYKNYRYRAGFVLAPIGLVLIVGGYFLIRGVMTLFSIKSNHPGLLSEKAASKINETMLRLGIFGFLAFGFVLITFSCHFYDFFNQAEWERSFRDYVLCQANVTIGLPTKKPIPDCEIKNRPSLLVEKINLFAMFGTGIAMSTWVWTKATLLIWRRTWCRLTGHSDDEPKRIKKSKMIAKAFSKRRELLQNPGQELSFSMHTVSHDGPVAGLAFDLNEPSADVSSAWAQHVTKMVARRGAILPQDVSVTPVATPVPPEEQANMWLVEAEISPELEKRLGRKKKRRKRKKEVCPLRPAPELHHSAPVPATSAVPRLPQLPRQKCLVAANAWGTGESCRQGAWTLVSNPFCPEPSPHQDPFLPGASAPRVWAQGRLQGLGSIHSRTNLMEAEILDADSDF

Compound: CC1=C2C[C@H]3[C@@H](CC=C4C[C@@H](O)CC[C@@]43C)[C@@H]2CC[C@]12O[C@@H]1C[C@H](C)CN[C@H]1[C@H]2C [cyclopamine]
- eng2a:GFP reporter expression (Zebrafish embryos): suppressed expression of the reporter gene
- Shh-induced Smo accumulation in cilia [1]: do not block Smo ciliary accumulation
- Smo accumulation in cilia, compound alone [2]: can drive Smo accumulation in cilia even in the absence of Shh
- inhibition of SAG activated ΔCRD-YFP-mSmo (ΔCRD-YFP-mSmo): remained susceptible to inhibition by cyclopamine
- potency against Shh-activated Smo compared to 20(S)-OHC-activated Smo [3]: much less potent
- inhibition of binding of mSmo CRD-Fc to 20(S)-OHC beads (mSmo CRD-Fc): blocked the interaction
